Each compound was assayed on hypoxia-inducible endogenous VEGF expression (assay: Assay to evaluate effect on hypoxia-inducible endogenous VEGF expression (VEGF ELISA, HeLa cells)). Settings: HeLa cells cultured 24-48 hours under hypoxic conditions (1% O2, 5% CO2); VEGF in conditioned media by ELISA; read-out: ELISA EC50 (effective concentration required to lower the amount of VEGF translation by 50%).
Type: cell-based
Protocol: Assay to Evaluate Effect on Hypoxia-Inducible Endogenous VEGF Expression
The ability of the compounds of the invention to modulate hypoxia-inducible endogenous VEGF expression is analyzed as follows. VEGF protein levels are monitored by an ELISA assay (R&D Systems). Briefly, HeLa cells are cultured for 24-48 hours under hypoxic conditions (1% O2, 5% CO2, balanced with nitrogen) in the presence or absence of a compound of the invention. The conditioned media is then assayed by ELISA, and the concentration of VEGF is calculated from the standard ELISA curve of each assay.
A dose-response analysis is performed using the ELISA assay and conditions described above. A series of, e.g., seven different concentrations are analyzed. In parallel, a dose-response cytotoxicity assay is performed using Cell Titer Glo (Promega) under the same conditions as the ELISA to ensure that the inhibition of VEGF expression is not due to the cytotoxicity. Dose-response curves are plotted using percentage inhibition versus concentration of the compound, and EC50 and CC50 values are generated for each compound with the maximal inhibition set as 100% and the minimal inhibition as 0%.
The most preferred compounds of the invention are those with μM values of 3 or less.

| Structure (SMILES) | EC50 [µM] |
| --- | --- |
| CC1CCCC(C)N1C(=O)Oc1ccccc1Br (centres unmarked) [2,6-Dimethyl-piperidine-1-carboxylic acid 2-bromo-phenyl ester] | > 30 |
| Cc1ccc2cc(OC(=O)N3CCCC3)ccc2n1 [Pyrrolidine-1-carboxylic acid 2-methyl-quinolin-6-yl ester] | > 30 |

Same assay, conditions: Homo sapiens, HeLa, read-out: ELISA EC50 (effective concentration required to lower the amount of VEGF translation by 50%)

| Structure (SMILES) | EC50 [µM] |
| --- | --- |
| CN(C(=O)Oc1ccc2cc(Br)ccc2c1)c1ccccc1 [Methyl-phenyl-carbamic acid 6-bromo-naphthalen-2-yl ester] | > 10 |
| Cc1ccc(OC(=O)N2CCCN(C)CC2)c(Br)c1 [4-Methyl-[1,4]diazepane-1-carboxylic acid 2-bromo-4-methyl-phenyl ester] | > 30 |
| CN1CCN(C(=O)Oc2ncc3ccccc3c2Cl)CC1 [4-Methyl-piperazine-1-carboxylic acid 4-chloro-isoquinolin-3-yl ester] | > 10 |
| Cc1ccc2cc(OC(=O)N3CCN(C)CC3)ccc2n1 [4-Methyl-piperazine-1-carboxylic acid 2-methyl-quinolin-6-yl ester] | > 30 |
| CC1CC(C)CN(C(=O)Oc2cc3ccccc3cn2)C1 (centres unmarked) [3,5-Dimethyl-piperidine-1-carboxylic acid isoquinolin-3-yl ester] | > 30 |
| CN1CCN(C(=O)Oc2cc(Cl)c(Cl)cc2Cl)CC1 [4-Methyl-piperazine-1-carboxylic acid 2,4,5-trichloro-phenyl ester] | > 30 |
| CN1CCCN(C(=O)Oc2ccccc2Br)CC1 [4-Methyl-[1,4]diazepane-1-carboxylic acid 2-bromo-phenyl ester] | > 30 |
| CN(C)C(=O)Oc1ccc2ccccc2c1Br [Dimethyl-carbamic acid 1-bromo-naphthalen-2-yl ester] | 4 |

Same assay, conditions: Homo sapiens; HeLa cells cultured 24-48 hours under hypoxic conditions (1% O2, 5% CO2); VEGF in conditioned media by ELISA; read-out: ELISA EC50 (effective concentration required to lower the amount of VEGF translation by 50%)

| Structure (SMILES) | EC50 [µM] |
| --- | --- |
| O=C(Oc1cc2ccccc2cn1)N1CCc2ccccc21 [2,3-Dihydro-indole-1-carboxylic acid isoquinolin-3-yl ester] | > 30 |
| O=C(Oc1ccc2cc(Br)ccc2c1)N1CCOCC1 [Morpholine-4-carboxylic acid 6-bromo-naphthalen-2-yl ester] | > 10 |
| O=C(Oc1cc2ccccc2cn1)N1CCN(c2ccccc2)CC1 [4-Phenyl-piperazine-1-carboxylic acid isoquinolin-3-yl ester] | > 30 |
| Cc1ccc(OC(=O)N2CCC(C)CC2)c(Br)c1 [4-Methyl-piperidine-1-carboxylic acid 2-bromo-4-methyl-phenyl ester] | > 30 |
| O=C(Oc1cc(Cl)c(Cl)cc1Cl)N1CCCC1 [Pyrrolidine-1-carboxylic acid 2,4,5-trichloro-phenyl ester] | > 30 |
| O=C(Nc1ccc2ccccc2c1Br)N1CCC(Cc2ccccc2)CC1 [4-Benzyl-piperidine-1-carboxylic acid (1-bromo-naphthalen-2-yl)-amide] | > 10 |
| CC1CC(C)CN(C(=O)Oc2ccc3ccccc3c2NS(C)(=O)=O)C1 (centres unmarked) [3,5-Dimethyl-piperidine-1-carboxylic acid 1-methanesulfonylamino-naphthalen-2-yl ester] | > 5 |
| O=C(Oc1c(Cl)cc(Cl)cc1Cl)N1CCCC1 [Pyrrolidine-1-carboxylic acid 2,4,6-trichloro-phenyl ester] | 23 |
| O=C(NCC1CCCCC1)Oc1ccc2ccccc2c1Br [Cyclohexylmethyl-carbamic acid 1-bromo-naphthalen-2-yl ester] | > 30 |
| CCN(CC)C(=O)Oc1ccc2ccccc2c1Br [Diethyl-carbamic acid 1-bromo-naphthalen-2-yl ester] | 2 |
| O=C(Oc1ccc2ccccc2c1Br)N1CCOCC1 [Morpholine-4-carboxylic acid 1-bromo-naphthalen-2-yl ester] | 0.999 |
| O=C(Oc1cc2ccccc2cn1)N1CCCc2ccccc21 [3,4-Dihydro-2H-quinoline-1-carboxylic acid isoquinolin-3-yl ester] | > 30 |
| O=C(Oc1ccc2ccccc2c1Br)N1CCc2ccccc2C1 [3,4-Dihydro-1H-isoquinoline-2-carboxylic acid 1-bromo-naphthalen-2-yl ester] | 0.174 |
| Cc1ccc2cc(OC(=O)N3CCc4ccccc43)ccc2n1 [2,3-Dihydro-indole-1-carboxylic acid 2-methyl-quinolin-6-yl ester] | > 30 |
| O=C(Nc1ccc2ccccc2c1)N1CCCCC1 [Piperidine-1-carboxylic acid naphthalen-2-ylamide] | > 10 |
| CS(=O)(=O)Nc1c(O)ccc2ccccc12 [N-(2-Hydroxy-naphthalen-1-yl)-methanesulfonamide] | > 5 |
| Cc1ccc(OC(=O)N2CCCC2)c(Br)c1 [Pyrrolidine-1-carboxylic acid 2-bromo-4-methyl-phenyl ester] | > 30 |
| CC1CCN(C(=O)Oc2cc3ccccc3cn2)CC1 [4-Methyl-piperidine-1-carboxylic acid isoquinolin-3-yl ester] | > 30 |
| O=C(Oc1ccccc1Br)N1CCC(Cc2ccccc2)CC1 [4-Benzyl-piperidine-1-carboxylic acid 2-bromo-phenyl ester] | > 30 |
| CC(=O)c1c(OC(=O)N2CCCC2)ccc2ccccc12 [Pyrrolidine-1-carboxylic acid 1-acetyl-naphthalen-2-yl ester] | > 30 |

| Structure (SMILES) | EC50 [µM] |
| --- | --- |
| O=C(Nc1ccc2ccccc2c1Cl)N1CCC(C(O)(c2ccccc2)c2ccccc2)CC1 [4-(Hydroxy-diphenyl-methyl)-piperidine-1-carboxylic acid (1-chloro-naphthalen-2-yl)-amide] | 0.794 |
| O=C(Nc1ccc2ccccc2c1Cl)N1CCN(c2ccc(Cl)cc2)CC1 [4-(4-Chloro-phenyl)-piperazine-1-carboxylic acid (1-chloro-naphthalen-2-yl)-amide] | > 10 |
| CS(=O)(=O)Nc1c(OC(=O)N2CCC(C(O)(c3ccccc3)c3ccccc3)CC2)ccc2ccccc12 [4-(Hydroxy-diphenyl-methyl)-piperidine-1-carboxylic acid 1-methanesulfonylamino-naphthalen-2-yl ester] | > 5 |
| CC(=O)c1c(OC(=O)N2CC(C)CC(C)C2)ccc2ccccc12 (centres unmarked) [3,5-Dimethyl-piperidine-1-carboxylic acid 1-acetyl-naphthalen-2-yl ester] | 0.764 |
| O=C(Nc1ccc2ccccc2c1Cl)N1CCN(c2ccccc2)CC1 [4-Phenyl-piperazine-1-carboxylic acid (1-chloro-naphthalen-2-yl)-amide] | > 10 |
| O=C(Oc1ncc2ccccc2c1Cl)N1CCCCC1 [Piperidine-1-carboxylic acid 4-chloro-isoquinolin-3-yl ester] | 2.22 |
| CC1CCN(C(=O)Oc2cc(Cl)c(Cl)cc2Cl)CC1 [4-Methyl-piperidine-1-carboxylic acid 2,4,5-trichloro-phenyl ester] | 16.2 |
| COc1ccc2ccc(OC(=O)N3CCC(C(O)(c4ccccc4)c4ccccc4)CC3)c(Br)c2c1 [4-(Hydroxy-diphenyl-methyl)-piperidine-1-carboxylic acid 1-bromo-7-methoxy-naphthalen-2-yl ester] | > 10 |
| O=C(Oc1c(Cl)cc(Cl)cc1Cl)N1CCCc2ccccc21 [3,4-Dihydro-2H-quinoline-1-carboxylic acid 2,4,6-trichloro-phenyl ester] | > 30 |
| O=C(Oc1c(Cl)cc(Cl)cc1Cl)N1CCCCC1 [Piperidine-1-carboxylic acid 2,4,6-trichloro-phenyl ester] | > 30 |
| CC1CCCCN1C(=O)Oc1ccc2ccccc2c1Br (centres unmarked) [2-Methyl-piperidine-1-carboxylic acid 1-bromo-naphthalen-2-yl ester] | 0.687 |
| O=C(Oc1cc(Cl)c(Cl)cc1Cl)N1CCN(c2ccccc2)CC1 [4-Phenyl-piperazine-1-carboxylic acid 2,4,5-trichloro-phenyl ester] | > 30 |
| CC1CCCCN1C(=O)Oc1c(Cl)cc(Cl)cc1Cl (centres unmarked) [2-Methyl-piperidine-1-carboxylic acid 2,4,6-trichloro-phenyl ester] | > 30 |
| CC1CC(C)CN(C(=O)Oc2ncc3ccccc3c2Cl)C1 (centres unmarked) [3,5-Dimethyl-piperidine-1-carboxylic acid 4-chloro-isoquinolin-3-yl ester] | > 10 |
| CC1CCN(C(=O)Oc2ccc3ccccc3c2Br)CC1 [4-Methyl-piperidine-1-carboxylic acid 1-bromo-naphthalen-2-yl ester] | 0.469 |
| O=C(Nc1ccc2ccccc2c1Cl)N1CCC(Cc2ccccc2)CC1 [4-Benzyl-piperidine-1-carboxylic acid (1-chloro-naphthalen-2-yl)-amide] | > 10 |
| O=C(Oc1ccccc1Br)N1CCc2cccnc21 [2,3-Dihydro-pyrrolo[2,3-b]pyridine-1-carboxylic acid 2-bromo-phenyl ester] | > 30 |
| O=C(Oc1cc(Cl)c(Cl)cc1Cl)N1CCC(Cc2ccccc2)CC1 [4-Benzyl-piperidine-1-carboxylic acid 2,4,5-trichloro-phenyl ester] | 7.09 |
| CC1CC(C)CN(C(=O)Nc2ccc3ccccc3c2Br)C1 (centres unmarked) [3,5-Dimethyl-piperidine-1-carboxylic acid (1-bromo-naphthalen-2-yl)-amide] | > 10 |
| O=C(NC1CCCCC1)Oc1ccccc1Br [Cyclohexyl-carbamic acid 2-bromo-phenyl ester] | > 30 |

Reference: patent US8143257B2, “Substituted phenols as active agents inhibiting VEGF production” (PTC Therapeutics, Inc., priority 2004, dated 2012)
